Numbers after ± are expanded uncertainties.
How the values were obtained:
[1] = Crystal; DTA
[2] = Molar enthalpy of transition or fusion; details: Crystal; DSC

Row | SMILES | Normal melting temperature [1] [°C] | Molar enthalpy of transition or fusion [2] [kcal/mol]
1 | COc1cccc([C@@]2(O)CCCC[C@@H]2CN(C)C)c1.Cl [tramadol hydrochloride] | 184.1 ± 2 | 7.07 ± 0.311
2 | CCC(=O)O[C@](Cc1ccccc1)(c1ccccc1)[C@H](C)CN(C)C.Cl [Dextropropoxyphene hydrochloride] | 168 ± 2 | 7.6 ± 0.382
3 | CC(=O)Nc1ccc(O)cc1 [N-acetyl-p-aminophenol] | 170.2 ± 2 | 6.51 ± 0.196
4 | CN[C@@H](C)[C@@H](O)c1ccccc1.Cl [Pseudoephedrine hydrochloride] | 185 ± 2 | 6.54 ± 0.237

Reference: the NIST ThermoML archive (doi:10.1016/j.tca.2016.03.025)
